Measured values taken from the NIST ThermoML archive (doi:10.1021/je900596d).
± gives the expanded uncertainty stated by the source.

Details: Liquid; for mass density: Vibrating tube method

FC(F)=C(F)C(F)(F)F [hexafluoropropene]
Details	mass density [kg/m3]	vapor or sublimation pressure [kPa]
353.13 K, 6254.1 kPa	1084.82 ± 1.1	–
353.13 K, 6293.2 kPa	1085.83 ± 1.1	–
353.13 K, 6333.5 kPa	1086.9 ± 1.1	–
353.13 K, 6371.8 kPa	1087.85 ± 1.1	–
353.13 K, 6409 kPa	1088.79 ± 1.1	–
353.13 K, 6445.8 kPa	1089.69 ± 1.1	–
353.13 K, 6484.6 kPa	1090.62 ± 1.1	–
353.13 K, 6524.7 kPa	1091.6 ± 1.1	–
353.13 K, 6563.9 kPa	1092.58 ± 1.1	–
353.13 K, 6604.4 kPa	1093.48 ± 1.1	–
353.13 K, 6642.7 kPa	1094.43 ± 1.1	–
353.13 K, 6683.7 kPa	1095.45 ± 1.1	–
353.13 K, 6726.1 kPa	1096.44 ± 1.1	–
353.13 K, 6764 kPa	1097.33 ± 1.1	–
353.13 K, 6802.8 kPa	1098.22 ± 1.1	–
353.13 K, 6841.6 kPa	1099.15 ± 1.1	–
353.13 K, 6882 kPa	1100.04 ± 1.1	–
353.13 K, 6922.2 kPa	1101.01 ± 1.1	–
353.13 K, 6960.8 kPa	1101.88 ± 1.1	–
353.13 K, 7001.3 kPa	1102.71 ± 1.1	–
353.13 K, 7038.1 kPa	1103.6 ± 1.1	–
353.13 K, 7076.1 kPa	1104.43 ± 1.1	–
353.13 K, 7114.4 kPa	1105.3 ± 1.1	–
353.13 K, 7154.8 kPa	1106.21 ± 1.1	–
353.13 K, 7191.9 kPa	1106.87 ± 1.1	–
353.13 K, 7231.5 kPa	1107.79 ± 1.1	–
353.13 K, 7270.9 kPa	1108.59 ± 1.1	–
353.13 K, 7309.7 kPa	1109.52 ± 1.2	–
353.13 K, 7347.2 kPa	1110.31 ± 1.1	–
353.13 K, 7384.6 kPa	1111.14 ± 1.1	–
353.13 K, 7426.6 kPa	1111.94 ± 1.1	–
353.13 K, 7521.7 kPa	1113.95 ± 1.1	–
353.13 K, 7570.3 kPa	1114.91 ± 1.1	–
353.13 K, 7620.7 kPa	1116.02 ± 1.1	–
353.13 K, 7669.4 kPa	1116.98 ± 1.1	–
353.13 K, 7719.8 kPa	1117.99 ± 1.2	–
353.13 K, 7771.4 kPa	1119.1 ± 1.2	–
353.13 K, 7821.6 kPa	1120.08 ± 1.2	–
353.13 K, 7875 kPa	1121.14 ± 1.2	–
353.13 K, 7925.8 kPa	1122.03 ± 1.2	–
353.13 K, 7977.1 kPa	1123.21 ± 1.2	–
353.13 K, 8027.6 kPa	1124.05 ± 1.1	–
353.13 K, 8077.8 kPa	1124.94 ± 1.2	–
353.13 K, 8128 kPa	1125.99 ± 1.2	–
353.13 K, 8179.4 kPa	1126.95 ± 1.2	–
353.13 K, 8229.7 kPa	1127.86 ± 1.2	–
353.13 K, 8281.6 kPa	1128.88 ± 1.2	–
353.13 K, 8333.3 kPa	1129.8 ± 1.2	–
353.13 K, 8384.4 kPa	1130.91 ± 1.2	–
353.13 K, 8434.2 kPa	1131.83 ± 1.2	–
353.13 K, 8483.8 kPa	1132.74 ± 1.2	–
353.13 K, 8533 kPa	1133.6 ± 1.2	–
353.13 K, 8585.1 kPa	1134.64 ± 1.2	–
353.13 K, 8636.6 kPa	1135.48 ± 1.2	–
353.13 K, 8688.1 kPa	1136.4 ± 1.2	–
353.13 K, 8739.4 kPa	1137.27 ± 1.2	–
353.13 K, 8787.9 kPa	1138.25 ± 1.2	–
353.13 K, 8838.8 kPa	1138.97 ± 1.2	–
353.13 K, 8890.6 kPa	1140.08 ± 1.2	–
353.13 K, 8940.9 kPa	1140.78 ± 1.2	–
353.13 K, 8990.5 kPa	1141.72 ± 1.2	–
353.13 K, 9042.5 kPa	1142.55 ± 1.2	–
353.13 K, 9093.8 kPa	1143.46 ± 1.2	–
353.13 K, 9145.5 kPa	1144.29 ± 1.2	–
353.13 K, 9199.3 kPa	1145.07 ± 1.2	–
353.13 K, 9251.5 kPa	1145.95 ± 1.2	–
353.13 K, 9300.6 kPa	1146.86 ± 1.2	–
353.13 K, 9353.4 kPa	1147.68 ± 1.2	–
353.13 K, 9405.2 kPa	1148.61 ± 1.2	–
353.13 K, 9453.7 kPa	1149.26 ± 1.2	–
353.13 K, 9503.3 kPa	1150.03 ± 1.2	–
353.13 K, 9555.6 kPa	1150.83 ± 1.2	–
353.13 K, 9607.5 kPa	1151.69 ± 1.2	–
353.13 K, 9658.7 kPa	1152.54 ± 1.2	–
353.13 K, 9709.8 kPa	1153.31 ± 1.2	–
353.13 K, 9762.3 kPa	1154.19 ± 1.2	–
353.13 K, 9811.9 kPa	1154.85 ± 1.2	–
353.13 K, 9863.5 kPa	1155.62 ± 1.2	–
353.13 K, 9915.1 kPa	1156.42 ± 1.2	–
353.13 K, 9969.2 kPa	1157.38 ± 1.2	–
353.23 K, Closed cell (Static) method	–	2782.3 ± 4.9
355.18 K, 2917.9 kPa	845.6 ± 1.7	–
355.18 K, 2920.4 kPa	846.43 ± 1.7	–
355.18 K, 2923.2 kPa	847.74 ± 1.6	–
355.18 K, 2925.7 kPa	848.75 ± 1.6	–
355.18 K, 2927.7 kPa	849.49 ± 1.6	–
355.18 K, 2929.8 kPa	850.21 ± 1.6	–
355.18 K, 2931.8 kPa	850.86 ± 1.6	–
355.18 K, 2933.8 kPa	851.6 ± 1.6	–
355.18 K, 2936.9 kPa	852.8 ± 1.6	–
355.18 K, 2939.2 kPa	853.64 ± 1.6	–
355.18 K, 2941.8 kPa	854.46 ± 1.6	–
355.18 K, 2944.4 kPa	855.06 ± 1.6	–
355.18 K, 2946.6 kPa	855.85 ± 1.6	–
355.18 K, 2948.8 kPa	856.52 ± 1.6	–
355.18 K, 2952.8 kPa	857.85 ± 1.6	–
355.18 K, 2960 kPa	859.85 ± 1.5	–
355.18 K, 2967.7 kPa	861.92 ± 1.5	–
355.18 K, 2975.4 kPa	863.9 ± 1.5	–
355.18 K, 2989.1 kPa	868.46 ± 1.5	–
355.18 K, 2995.9 kPa	870.43 ± 1.5	–
355.18 K, 3004.5 kPa	872.46 ± 1.6	–
355.18 K, 3019.2 kPa	876.04 ± 1.7	–
355.18 K, 3027.3 kPa	878.11 ± 1.7	–
355.18 K, 3033.9 kPa	879.53 ± 1.7	–
355.18 K, 3039.9 kPa	880.6 ± 1.7	–
355.18 K, 3094.7 kPa	890.53 ± 1.7	–
355.18 K, 3105.5 kPa	892.47 ± 1.4	–
355.18 K, 3126.6 kPa	896.05 ± 1.4	–
355.18 K, 3136.9 kPa	897.86 ± 1.4	–
355.18 K, 3146.9 kPa	899.37 ± 1.4	–
355.18 K, 3157.8 kPa	901.09 ± 1.4	–
355.18 K, 3167.8 kPa	902.86 ± 1.4	–
355.18 K, 3178.7 kPa	904.31 ± 1.3	–
355.18 K, 3189.5 kPa	906.01 ± 1.3	–
355.18 K, 3200.1 kPa	907.48 ± 1.3	–
355.18 K, 3210.7 kPa	909 ± 1.3	–
355.18 K, 3221.2 kPa	910.46 ± 1.3	–
355.18 K, 3231.6 kPa	911.83 ± 1.3	–
355.18 K, 3252.1 kPa	914.62 ± 1.3	–
355.18 K, 3263.1 kPa	916.04 ± 1.2	–
355.18 K, 3273.1 kPa	917.41 ± 1.3	–
355.18 K, 3283.4 kPa	918.63 ± 1.2	–
355.18 K, 3294.3 kPa	920.14 ± 1.2	–
355.18 K, 3304.3 kPa	921.35 ± 1.2	–
355.18 K, 3325.4 kPa	923.75 ± 1.2	–
355.18 K, 3347.5 kPa	926.36 ± 1.2	–
355.18 K, 3368.1 kPa	928.74 ± 1.2	–
355.18 K, 3388.8 kPa	930.98 ± 1.2	–
355.18 K, 3410.2 kPa	933.28 ± 1.2	–
355.18 K, 3453.4 kPa	937.53 ± 1.2	–
355.18 K, 3496.3 kPa	941.66 ± 1.2	–
355.18 K, 3516.9 kPa	943.53 ± 1.2	–
